Measured values: US20110077294A1, “R-(-) / S-(+)-7-[3-N SUBSTITUTED AMINO-2 HYDROXYPROPOXY] FLAVONES” (priority 2006, published 2011)
Marks after values point to notes of the source that are not given here.

How the values were obtained:
Assay type in all cases: in vivo
[1] = test system: C57BL/KsBom-db/db mice; experiment: Oral glucose tolerance test (OGTT) on day 10 in db/db mice; details: for Blood glucose profile, 90 min post glucose load / Blood glucose % change compared to control, 90 min post glucose load: OGTT day 10, 90 min; for Blood glucose profile, 120 min post glucose load / Blood glucose % change compared to control, 120 min post glucose load: OGTT day 10, 120 min; for Blood glucose profile, −30 min post glucose load / Blood glucose % change compared to control, −30 min post glucose load: OGTT day 10, −30 min; for Comparative antihyperglycemic activity: Day 10 (OGTT): in % (unit assumed)
Description: (§1) C57BL/KsBom-db/db mice (12-18 weeks old), weighing around 35+g bred in the animal house of CDRI, Lucknow, were used in the present experiments. The mice were housed in groups of 3 to 5 (same sex) in a room controlled for temperature (23±2.0 ° C.) and 12/12 hours light/dark cycle (lights on at 6.00 am). Body weight of each animal was measured daily from day 1 to day 10 of the experiment. All animals had free access to fresh water and normal pellet diet except on the day of the postprandial protocol (day 6) and during the overnight fast before the OGTT on day 10. The animals always had access to water during experimental periods. Blood glucose was checked every morning up till day 10. On day 10 an oral glucose tolerance test (OGTT) was performed after an overnight fasting. Blood glucose was measured at −30.0 min and test compounds were administered. The blood glucose was again measured at 0 min just post treatment and at this juncture glucose solution was given at a dose of 3 gm/kg to all the groups including the vehicle treated group. The blood glucose levels were checked at 30 min, 60 min, 90 min and 120 min post glucose administration. The data was analyzed for its significance on Prism software.

[2] = test system: C57BL/KsBom-db/db mice; experiment: Serum lipid profile of treated db/db mice (antidyslipidemic activity); details: 25 mg/kg
Description: as §1

[3] = test system: C57BL/KsBom-db/db mice; experiment: as above
[4] = db/db mice, 10 mg/kg, statistically insignificant
[5] = db/db mice, test dose 10 mg/kg, in %
[6] = db/db mice, test dose 25 mg/kg, in %

CC(C)(C)NC[C@H](O)COc1ccc2c(=O)cc(-c3cc(OCc4ccccc4)cc(OCc4ccccc4)c3)oc2c1 [S-002-853 (S), (S)-(+)-7-(3-tert-Butylamino-2-hydroxypropoxy)-3′,5′-dibenzyloxyflavone]
Blood glucose profile, 90 min post glucose load ([1]; 10 mg/kg): 12.1 ± 3.81 mM
Blood glucose % change compared to control, 90 min post glucose load ([1]; 10 mg/kg, vs sham): −26.9%
Blood glucose profile, 120 min post glucose load ([1]; 10 mg/kg): 9.23 ± 3.10 mM
Blood glucose % change compared to control, 120 min post glucose load ([1]; 10 mg/kg, vs sham): −11.7%
Blood glucose profile, −30 min post glucose load ([1]; 10 mg/kg): 8.37 ± 2.98 mM
Blood glucose % change compared to control, −30 min post glucose load ([1]; 10 mg/kg, vs sham): −23.9%
effect of 10 days treatment on glucose tolerance ([1]; 10 mg/kg, not statistically significant): around 27.6%
Blood glucose profile, 0 min post glucose load ([1]; 25 mg/kg, OGTT day 10, 0 min): 4.81 ± 0.35 mM
Blood glucose % change compared to control, 0 min post glucose load ([1]; 25 mg/kg, OGTT day 10, 0 min, vs sham): −41.8%
Blood glucose profile, 30 min post glucose load ([1]; 25 mg/kg, OGTT day 10, 30 min): 17.8 ± 1.24 mM
Blood glucose % change compared to control, 30 min post glucose load ([1]; 25 mg/kg, OGTT day 10, 30 min, vs sham): −38.6%
Blood glucose profile, 60 min post glucose load ([1]; 25 mg/kg, OGTT day 10, 60 min): 16.3 ± 1.82 mM
Blood glucose % change compared to control, 60 min post glucose load ([1]; 25 mg/kg, OGTT day 10, 60 min, vs sham): −48.3%
Blood glucose profile, 90 min post glucose load ([1]; 25 mg/kg): 13.0 ± 1.66 mM
Blood glucose % change compared to control, 90 min post glucose load ([1]; 25 mg/kg, vs sham): −45.5%
Blood glucose profile, 120 min post glucose load ([1]; 25 mg/kg): 8.83 ± 0.72 mM
Blood glucose % change compared to control, 120 min post glucose load ([1]; 25 mg/kg, vs sham): −58.2%
Blood glucose profile, −30 min post glucose load ([1]; 25 mg/kg): 4.57 ± 0.30 mM
Blood glucose % change compared to control, −30 min post glucose load ([1]; 25 mg/kg, vs sham): −43.5%
effect of 10 days treatment on glucose tolerance (overall improvement in OGTT) ([1]; 25 mg/kg, vs sham): around 45.3%
Comparative antihyperglycemic activity: Day 10 (OGTT) ([1]; test dose 10 mg/kg): 27.6*
Comparative antihyperglycemic activity: Day 10 (OGTT) ([1]; test dose 25 mg/kg): 45.3**
Serum lipid profile: Cholesterol [2]: 185 ± 51.4 mg/dL
Serum lipid profile: HDL-Chol [2]: 49.5 ± 8.36 mg/dL
Serum lipid profile: Triglycerides [2]: 115 ± 2.82 mg/dL
Cholesterol % change compared to control ([2]; vs sham): −21.8%
HDL-Chol % change compared to control ([2]; vs sham): +33.2%
Triglycerides % change compared to control ([2]; vs sham): −14.5%
enhancement of HDL-C as compared to the racemic compound ([3]; 25 mg/kg body weight): more than two folds
Serum lipid profile: Cholesterol ([3]; db/db mice, 10 mg/kg): 87.5 ± 3.00 mg/dL
Serum lipid profile: HDL-Chol ([3]; db/db mice, 10 mg/kg): 66.4 ± 2.87 mg/dL
Serum lipid profile: Triglycerides ([3]; db/db mice, 10 mg/kg): 110 ± 4.08 mg/dL
Cholesterol % change compared to control ([3]; db/db mice, 10 mg/kg, vs sham): −16.3%
HDL-Chol % change compared to control ([3]; db/db mice, 10 mg/kg, vs sham): +17.4%
Triglycerides % change compared to control ([3]; db/db mice, 10 mg/kg, vs sham): −17.9%
elevation in HDL-cholesterol level than control [3, 4]: +17.4%
lowering of serum cholesterol [3, 4]: around 16.3%
lowering of serum triglycerides [3, 4]: ~17.9%
decrease in LDL-cholesterol level ([3]; db/db mice, 25 mg/kg): around 29.4%
elevation in HDL-cholesterol level than control ([3]; db/db mice, 25 mg/kg): 33.2%
lowering of serum cholesterol ([3]; db/db mice, 25 mg/kg): around 21.8%
lowering of serum triglycerides ([3]; db/db mice, 25 mg/kg): ~14.5%
Comparative antihyperlipidemic activity: HDL-C ([3]; db/db mice, test dose 10 mg/kg): +17.4^ns
Comparative antihyperlipidemic activity: T-Chol [3, 5]: 16.3*
Comparative antihyperlipidemic activity: TG [3, 5]: 17.9*
Comparative antihyperlipidemic activity: HDL-C [3, 6]: +33.2*
Comparative antihyperlipidemic activity: T-Chol [3, 6]: 27.8*
Comparative antihyperlipidemic activity: TG [3, 6]: 14.5**
